Paper PMC9226124, “Macrocycle-stabilization of its interaction with 14-3-3 increases plasma membrane localization and activity of CFTR” (Nature Communications, 2022)
Several values for one entry are separate records, joined by “and”; a condition that tells them apart may be missing. Equal values may be shown once. Read-outs that look alike come from different tables or passages of the source.

Assays:
[1] = biological target: T1, 14-3-3β/CFTRpS753pS768 complex (Homo sapiens, UniProt P13569+P31946); test: Dose-response fluorescence polarization (FP) assay, compound titration; type: binding; conditions: for EC50: 14-3-3β 10 μM, labeled CFTRpS753pS768 100 nM; for FP signal: With 14-3-3
T1 construct: His6 (cleaved yes); made in house; peptide synthetic
Method: The 14-3-3β concentration used for the FP screening assay was 10 μM (dashed line). c HTS FP assay of the Cyclenium library. The samples contain 100 nM of FITC-CFTR_pS753pS768 peptide, 10 μM 14-3-3β, and 50 μM compound. FC-A (100 µM) was added as a positive control and DMSO as the negative control. Hit compounds are defined as a polarization increase which is higher than 20% of the response of FC-A. Red squares are compounds that appeared positive in the negative control without 14-3-3. […] Background polarization was subtracted from all values, n = 3 technical replicates. Compounds selected for further analysis are indicated with an asterisk. e Polarization in the absence of 14-3-3. […] Source data are provided as a Source Data file. […]
The FITC-labeled peptides were dissolved in FP buffer (10 mM HEPES pH 7.4, 150 mM NaCl, 0.1% Tween20, 1 mg/mL BSA) to a final concentration of 100 nM or 10 nM. For the dose-response assays, a 14-3-3β concentration of 10 μM was used while titrating the compounds in a two-times dilution series and, for the other assays, a dilution series of 14-3-3β was made with constant concentration of compound. The dilution series were made in 384 Corning Black Round Bottom well plates and their polarization was measured with a Tecan Infinite F500 plate reader (ex. = 485 nm, em. = 535 nm). The method of fitting of the curves was: “log(agonist) vs. response – Variable slope (four parameters)” from GraphPad Prism. The equation is Y = Bottom + (Top-Bottom)/(1 + 10^((LogEC50-X)*HillSlope)).

[2] = biological target: T2, 3HA-tagged F508del-CFTR in BHK cells (Homo sapiens, UniProt P13569, DEL508-508); test: CFTR trafficking assay (surface expression); type: cell-based, hamster; conditions: for F508del-CFTR surface expression signal (Fig5a): individual replicates
T2 construct: expressed in transfected cells; host or cells: baby hamster kidney (BHK) cells (Carlile et al. 2007)
Method: Twelve (12) validated hit compounds from the initial screening and focused validation library were tested for their effect on F508del-CFTR trafficking. Baby hamster kidney (BHK) cells expressing 3HA-tagged F508del-CFTR were treated for 24 h with 10 μM compound. After fixation of the cells, a combination of mouse monoclonal anti-HA antibody and anti-mouse IgG conjugated with FITC was used to detect F508del-CFTR that had trafficked to the plasma membrane as described previously. […] Additionally, a fluorescence imaging plate reader (FLIPR) Membrane Potential (FMP) assay was performed. This assay measures real-time membrane potential changes associated with ion channel activation and ion transporter proteins. F508del-CFTR expressing BHK cells were incubated for 24 h with 20 μM compound before treatment with the potentiator genistein, FMP dye, and activator forskolin. The fluorescence intensity is thus a measure for the function of the CFTR protein in the plasma membrane of these cells. The F508del-CFTR corrector VX-809 (lumacaftor) and the triple combination Trikafta® were used as positive controls in this assay. […] Another cellular assay was performed with the Ussing Chamber, which detects and quantifies transport of ions across epithelial tissue. F508del-CFTR expressing cystic fibrosis epithelial (CFBE) cells were treated for 18 h with 20 μM CY007424. After forskolin and genistein stimulation, the short-circuit current of the cells was measured.
Fig. 5 Cellular activity of macrocycles stabilizing the 14-3-3/CFTR PPI. a Surface expression of 3HA-tagged F508del-CFTR in BHK cells incubated for 24 h with 10 μM compound and treated with mouse monoclonal anti-HA antibody and anti-mouse IgG conjugated with FITC (n = 4 or n = 3 biological replicates, bars represent the mean). b, c FLIPR Membrane Potential (FMP) assay of F508del-CFTR expressing BHK cells treated for 24 h with the macrocycles (b, n = 6 biological replicates, bars represent the mean) or with CY007424 and/or VX-809 or Trikafta®, with and without CFTR inhibitor INH172 (c, n = 4 biological replicates, bars represent the mean). d Using chamber experiment of F508del-CFTR expressing CFBE cells treated for 18 h with CY007424, VX-809, or Trikafta® or in combinations. CFTR activity is assayed by measurement of short-circuit current of cells after stimulation by forskolin and the potentiator genistein (n = 3 or n = 6 biological replicates, bars represent the mean). Source data are provided as a Source Data file.
The trafficking assay was performed as previously described by Carlile et al.[21]. In brief, 3HA-tagged F508del-CFTR expressing baby hamster kidney (BHK) cells (cells earlier described by Carlile et. al. 2007)[21] were seeded in 96-well plates (Corning half area, black-sided, clear bottom) at 15,000 cells per well. After 24 h incubation at 37 °C, the cells were treated with 10 μM of compound for 24 h (final DMSO concentration 1% v/v). The cells were fixated with 4% paraformaldehyde, washed with PBS, and then blocked with fetal bovine serum (5% in PBS). Mouse monoclonal anti-HA antibody (H9658 Sigma, 1:150 dilution in PBS) was incubated overnight, and, after three washes with PBS, the background fluorescence was measured in a plate reader (488 nm excitation, 510 nm emission). The secondary antibody anti-mouse IgG conjugated with FITC (F5262 Sigma, 1:100 dilution in PBS) was incubated for 1 h, the cells were washed three times with PBS and analyzed in the plate reader again. Background fluorescence was subtracted from the signal, after which the signal was normalized to the DMSO control and wt-CFTR expressing cells.

T1 sequence (P31946 whole entry): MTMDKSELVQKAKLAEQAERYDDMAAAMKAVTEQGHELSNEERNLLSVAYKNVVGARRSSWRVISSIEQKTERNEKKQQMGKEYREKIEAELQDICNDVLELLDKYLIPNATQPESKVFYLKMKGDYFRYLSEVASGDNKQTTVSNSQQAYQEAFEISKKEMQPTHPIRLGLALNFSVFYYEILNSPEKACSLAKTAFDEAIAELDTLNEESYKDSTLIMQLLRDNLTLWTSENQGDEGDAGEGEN
T1 sequence (P13569 747-774 limits assumed): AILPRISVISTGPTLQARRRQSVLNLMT
T2 sequence (P13569 with tags, fused parts or gaps DEL508-508): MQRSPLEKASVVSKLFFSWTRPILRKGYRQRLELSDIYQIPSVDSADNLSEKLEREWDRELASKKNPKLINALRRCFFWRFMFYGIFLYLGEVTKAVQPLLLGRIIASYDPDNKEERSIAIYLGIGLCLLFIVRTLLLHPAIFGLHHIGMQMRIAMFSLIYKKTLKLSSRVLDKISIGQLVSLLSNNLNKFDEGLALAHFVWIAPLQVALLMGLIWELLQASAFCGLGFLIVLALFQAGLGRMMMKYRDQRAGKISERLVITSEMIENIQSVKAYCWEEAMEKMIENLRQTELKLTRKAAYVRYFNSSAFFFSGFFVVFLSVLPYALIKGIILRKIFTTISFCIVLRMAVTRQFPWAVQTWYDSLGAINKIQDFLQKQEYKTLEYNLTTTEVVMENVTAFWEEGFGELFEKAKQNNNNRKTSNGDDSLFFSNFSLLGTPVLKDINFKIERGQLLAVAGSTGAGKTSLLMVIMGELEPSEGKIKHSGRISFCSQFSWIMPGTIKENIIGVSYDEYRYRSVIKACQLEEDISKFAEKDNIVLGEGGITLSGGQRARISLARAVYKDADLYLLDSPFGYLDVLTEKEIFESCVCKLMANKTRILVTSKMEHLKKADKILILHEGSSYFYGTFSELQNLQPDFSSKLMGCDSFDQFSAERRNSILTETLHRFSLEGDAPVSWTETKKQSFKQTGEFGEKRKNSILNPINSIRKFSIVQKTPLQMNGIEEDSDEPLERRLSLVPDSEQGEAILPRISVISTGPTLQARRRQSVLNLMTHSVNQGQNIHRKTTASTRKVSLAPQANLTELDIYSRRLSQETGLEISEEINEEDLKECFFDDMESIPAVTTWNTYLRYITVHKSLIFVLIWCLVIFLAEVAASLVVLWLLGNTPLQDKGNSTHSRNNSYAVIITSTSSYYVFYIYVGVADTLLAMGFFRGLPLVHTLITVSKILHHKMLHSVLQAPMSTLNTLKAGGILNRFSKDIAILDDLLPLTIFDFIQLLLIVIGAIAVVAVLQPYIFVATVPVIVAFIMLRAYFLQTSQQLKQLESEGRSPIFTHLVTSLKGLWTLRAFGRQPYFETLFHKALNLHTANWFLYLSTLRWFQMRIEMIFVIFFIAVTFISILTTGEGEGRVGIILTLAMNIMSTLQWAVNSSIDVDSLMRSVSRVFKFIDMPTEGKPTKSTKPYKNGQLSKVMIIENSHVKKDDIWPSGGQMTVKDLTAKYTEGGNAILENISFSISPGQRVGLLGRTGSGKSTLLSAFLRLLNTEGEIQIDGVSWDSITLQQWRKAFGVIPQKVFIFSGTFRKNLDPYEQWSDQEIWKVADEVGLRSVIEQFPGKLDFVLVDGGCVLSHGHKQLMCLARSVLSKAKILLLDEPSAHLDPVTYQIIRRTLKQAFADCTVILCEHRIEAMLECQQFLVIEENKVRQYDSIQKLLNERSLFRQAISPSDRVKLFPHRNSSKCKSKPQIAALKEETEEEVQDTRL

| SMILES | FP signal ([1]; compound 476.8 pM) | FP signal ([1]; compound 953.7 pM) | FP signal ([1]; compound 1.90735e-9 M) | FP signal ([1]; compound 3.8147e-9 M) | FP signal ([1]; compound 7.6294e-9 M) | FP signal ([1]; compound 1.52588e-8 M) | FP signal ([1]; compound 3.05176e-8 M) | FP signal ([1]; compound 6.10352e-8 M) | FP signal ([1]; compound 1.2207e-7 M) | FP signal ([1]; compound 2.44141e-7 M) | FP signal ([1]; compound 4.88281e-7 M) | FP signal ([1]; compound 9.76563e-7 M) | FP signal ([1]; compound 1.95313e-6 M) | FP signal ([1]; compound 3.90625e-6 M) | FP signal ([1]; compound 7.8125e-6 M) | FP signal ([1]; compound 1.5625e-5 M) | FP signal ([1]; compound 3.125e-5 M) | FP signal ([1]; compound 6.25e-5 M) | FP signal ([1]; compound 0.000125 M) | FP signal ([1]; compound 0.00025 M) | other results |
| --- | --- | --- | --- | --- | --- | --- | --- | --- | --- | --- | --- | --- | --- | --- | --- | --- | --- | --- | --- | --- | --- |
| N=C(N)NCCCC1NC(=O)C(CCCCN)NCc2ccccc2Sc2ccccc2CNC(=O)C(Cc2ccc(O)cc2)NC1=O (stereo not shown) [CY001951] | 3 | 3 | 4 | 4 | 3 | 5 | 4 | 5 | 4 | 4 | 5 | 6 | 6 | 6 | 7 | 9 | 16 | 33 | 73 | 143 | EC50 ([1]; read-out: EC50): 267 µM; FP signal ([1]; compound 0.0005 M): 201; FP signal ([1]; compound 0.001 M): 252; F508del-CFTR surface expression signal (Fig5a) [2]: 85.2534 and 218.237 and 180.048 and 282.523 |
| NCCCCC1NCc2ccccc2Sc2ccccc2CNC(=O)C(Cc2cccc(Cl)c2)NC(=O)C(Cc2ccc(O)cc2)NC1=O (stereo not shown) [CY007288] | 6 | 6 | 5 | 4 | 7 | 6 | 5 | 4 | 4 | 5 | 6 | 6 | 5 | 8 | 9 | 16 | 30 | 55 | 97 | 149 | EC50 [1]: False positive; FP signal ([1]; compound 0.0005 M): 194; FP signal ([1]; compound 0.001 M): 224; F508del-CFTR surface expression signal (Fig5a) [2]: 916.74 and 800.091 and 871.094 and 781.005 |
| NCCCC1NCc2ccccc2Sc2ccccc2CNC(=O)C(Cc2c[nH]c3ccccc23)NC(=O)C(Cc2ccccc2)NC1=O (stereo not shown) [CY007345] | 5 | 5 | 4 | 7 | 5 | 4 | 4 | 7 | 6 | 5 | 6 | 7 | 8 | 14 | 28 | 52 | 90 | 137 | 191 | 224 | EC50 [1]: False positive; FP signal ([1]; compound 0.0005 M): 238; FP signal ([1]; compound 0.001 M): 248; F508del-CFTR surface expression signal (Fig5a) [2]: -42.2555 and -20.6074 and 61.7766 and 72.7311 |
| N=C(N)NCCCC1NCc2ccccc2Sc2ccccc2CNC(=O)C(Cc2ccc(O)cc2)NC(=O)C(CCCN)NC1=O (stereo not shown) [CY007424] | 4 | 5 | 5 | 7 | 4 | 7 | 6 | 5 | 5 | 7 | 7 | 7 | 6 | 12 | 27 | 52 | 122 | 193 | 244 | 263 | EC50 ([1]; read-out: EC50): 36.1 µM and 36 µM; FP signal ([1]; compound 0.0005 M): 257; FP signal ([1]; compound 0.001 M): 271; F508del-CFTR trafficking towards the plasma membrane ([2]; BHK cells, 24 h, 10 μM compound): strongest increase; F508del-CFTR surface expression signal (Fig5a) [2]: 1698.78 and 1774.35 and 1725.92 and 1889.17 |
| N=C(N)NCCCC1NC(=O)C(CCC(N)=O)NC(=O)C(CCCNC(=N)N)NC(=O)C2CCCN2Cc2cccc(c2)-c2ccccc2CNC1=O (stereo not shown) [CY007455] | 5 | 6 | 3 | 4 | 5 | 4 | 4 | 5 | 7 | 6 | 4 | 4 | 5 | 9 | 8 | 15 | 26 | 53 | 107 | 170 | EC50 ([1]; read-out: EC50): 170 µM; FP signal ([1]; compound 0.0005 M): 209; FP signal ([1]; compound 0.001 M): 244; F508del-CFTR surface expression signal (Fig5a) [2]: 15.0857 and 101.743 and 158.532 and 44.3829 |
| N=C(N)NCCCC1NC(=O)C(CCC(N)=O)NC(=O)C(CCCNC(=N)N)NC(=O)C2CCCN2Cc2cccc(c2)-c2ccccc2CNC1=O (stereo not shown) [CY007458] | 6 | 5 | 4 | 5 | 7 | 4 | 6 | 5 | 4 | 5 | 6 | 6 | 5 | 8 | 11 | 15 | 33 | 65 | 124 | 179 | EC50 ([1]; read-out: EC50): 151 µM; FP signal ([1]; compound 0.0005 M): 221; FP signal ([1]; compound 0.001 M): 252; F508del-CFTR surface expression signal (Fig5a) [2]: 354.117 and 244.376 and 379.817 and 293.603 |
